In this assay the target is T1, Thyroid hormone receptor alpha (Homo sapiens, UniProt P10827).
T1 sequence (P10827 whole entry): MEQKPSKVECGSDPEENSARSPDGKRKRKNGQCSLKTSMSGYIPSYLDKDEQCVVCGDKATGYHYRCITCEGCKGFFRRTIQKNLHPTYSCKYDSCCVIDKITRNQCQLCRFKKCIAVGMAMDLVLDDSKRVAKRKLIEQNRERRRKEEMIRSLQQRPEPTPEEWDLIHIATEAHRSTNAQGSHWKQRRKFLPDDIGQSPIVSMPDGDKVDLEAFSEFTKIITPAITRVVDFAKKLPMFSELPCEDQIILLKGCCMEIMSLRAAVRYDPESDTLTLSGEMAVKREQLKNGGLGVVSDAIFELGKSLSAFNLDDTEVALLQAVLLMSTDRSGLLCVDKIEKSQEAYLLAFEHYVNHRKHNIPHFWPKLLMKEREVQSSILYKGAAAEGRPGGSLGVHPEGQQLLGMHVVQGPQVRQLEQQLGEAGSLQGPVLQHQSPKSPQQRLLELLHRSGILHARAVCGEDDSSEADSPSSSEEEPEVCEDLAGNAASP
The experiment in a line: TRalpha-Binding Assay and Thyroid Response Element (TRAFalpha1) Reporter Assay. Particulars: pH 7; 4 °C. From the text:
EC50 is the concentration of compound required to inhibit 50% of T3-induced TRalpha-activation in CHOK1 cells stably transfected with hTRalpha using alkaline phosphatase reporter assay.
In general terms: In a reporter assay the amount or activity of a reporter protein is the signal.

By pEC50 is commonly meant −log10 of the EC50, conventionally taken in molar units. Higher therefore signals a small EC50.

The structures appear in SMILES notation. pEC50: −log10 of the molar value.

`CC(C)c1cc(Oc2c(Br)cc(CCC(=O)O)cc2Br)cc(/C=C/c2ccncc2)c1O` [3-{3,5-dibromo-4-[4-hydroxy-3-(propan-2-yl)-5-[(E)-2-(pyridin-4-yl)ethenyl]phenoxy]phenyl}propanoic acid] gave a pEC50 of 7.49.
